The nature of the data set: Appearance of formulation (state at 25° C.). Format: physicochemical. As to conditions: 25° C.; components (A) and (B) at the compounding molar ratio shown. The method, then:
Formulations 1 to 427 shown in Tables 1A to 1D were prepared by the above-described method using the components (A) and (B) at the compounding molar ratios shown in the tables, and their states at 25° C. were observed.

On to `N[C@@H](Cc1c[nH]cn1)C(=O)O.O=C(O)C=Cc1ccccc1` [Formulation 103], for which the “state at 25° C.” value is recorded as “Solid”.

On to `N[C@@H](Cc1c[nH]cn1)C(=O)O.O=C1O[C@H]([C@@H](O)CO)C(O)=C1O` [Formulation 104], for which the “state at 25° C.” value is reported as “Solid”.

Take `N[C@@H](Cc1c[nH]cn1)C(=O)O.O=CO.O=CO` [Formulation 106]: the “state at 25° C.” value is “Solid”.

On to `CCCCCC(=O)O.CCCCCC(=O)O.N[C@@H](Cc1cnc[nH]1)C(=O)O` [Formulation 109], for which the “state at 25° C.” value is “Solid”.

For the compound `CCCC(=O)O.CCCC(=O)O.N[C@@H](Cc1cnc[nH]1)C(=O)O` [Formulation 110], the “state at 25° C.” value is listed as “Solid”.

In the case of `CCCCCCCC/C=C\CCCCCCCC(=O)O.CCCCCCCC/C=C\CCCCCCCC(=O)O.N[C@@H](Cc1c[nH]cn1)C(=O)O` [Formulation 112], the “state at 25° C.” value was “Solid”.

In the case of `CCCCC/C=C\C/C=C\CCCCCCCC(=O)O.CCCCC/C=C\C/C=C\CCCCCCCC(=O)O.N[C@@H](Cc1cnc[nH]1)C(=O)O` [Formulation 113], the “state at 25° C.” value is reported as “Solid”.

Consider `N[C@@H](Cc1cnc[nH]1)C(=O)O.O=C(O)CCCCC(=O)O.O=C(O)CCCCC(=O)O` [Formulation 116], for which the “state at 25° C.” value is given as “Solid”.

With `N[C@@H](Cc1c[nH]cn1)C(=O)O.O=C(O)C[C@H](O)C(=O)O.O=C(O)C[C@H](O)C(=O)O` [Formulation 120], the “state at 25° C.” value is “Solid”.

`N[C@@H](Cc1c[nH]cn1)C(=O)O.O=C(O)C(O)C(O)C(=O)O.O=C(O)C(O)C(O)C(=O)O` [Formulation 122]: the “state at 25° C.” value is on record as “Solid”.

For `N[C@@H](Cc1c[nH]cn1)C(=O)O.O=C(O)c1ccccc1.O=C(O)c1ccccc1` [Formulation 123], the “state at 25° C.” value is “Solid”.

`N[C@@H](Cc1c[nH]cn1)C(=O)O.O=C(O)/C=C/c1ccccc1.O=C(O)/C=C/c1ccccc1` [Formulation 124]: the “state at 25° C.” value is listed as “Solid”.

Regarding `N[C@@H](Cc1c[nH]cn1)C(=O)O.O=C1O[C@H]([C@@H](O)CO)C(O)=C1O.O=C1O[C@H]([C@@H](O)CO)C(O)=C1O` [Formulation 125], the “state at 25° C.” value is listed as “Solid”.

For `CC(=O)O.NCC(=O)O` [Formulation 128], the “state at 25° C.” value was “Solid”.

On to `CCC(=O)O.NCC(=O)O` [Formulation 129], for which the “state at 25° C.” value is “Solid”.

With `CCCCCC(=O)O.NCC(=O)O` [Formulation 130], the “state at 25° C.” value was “Solid”.

Take `CCCC(=O)O.NCC(=O)O` [Formulation 131]: the “state at 25° C.” value was “Solid”.

As for `CCCCCCCC/C=C\CCCCCCCC(=O)O.NCC(=O)O` [Formulation 133], the “state at 25° C.” value is “Solid”.

Regarding `CCCCC/C=C\C/C=C\CCCCCCCC(=O)O.NCC(=O)O` [Formulation 134], the “state at 25° C.” value is “Solid”.

As to `NCC(=O)O.O=C(O)[C@H](O)[C@@H](O)[C@H](O)[C@H](O)CO` [Formulation 135], the “state at 25° C.” value is reported as “Solid”.

With `CC(O)C(=O)O.NCC(=O)O` (stereo not drawn) [Formulation 136], the “state at 25° C.” value is reported as “Solid”.

On to `NCC(=O)O.O=C(O)CCCCC(=O)O` [Formulation 137], for which the “state at 25° C.” value is recorded as “Solid”.

Take `NCC(=O)O.O=C(O)CCC(=O)O` [Formulation 138]: the “state at 25° C.” value is “Solid”.

With `NCC(=O)O.N[C@@H](CCC(=O)O)C(=O)O` [Formulation 139], the “state at 25° C.” value is given as “Solid”.

For the compound `NCC(=O)O.O=C(O)/C=C/C(=O)O` [Formulation 140], the “state at 25° C.” value is reported as “Solid”.

For `NCC(=O)O.O=C(O)C[C@H](O)C(=O)O` [Formulation 141], the “state at 25° C.” value is “Solid”.

Take `NCC(=O)O.O=C(O)C(O)C(O)C(=O)O` (stereo not drawn) [Formulation 143]: the “state at 25° C.” value was “Solid”.

As for `NCC(=O)O.O=C(O)c1ccccc1` [Formulation 144], the “state at 25° C.” value was “Solid”.

`NCC(=O)O.O=C1O[C@H]([C@@H](O)CO)C(O)=C1O` [Formulation 145]: the “state at 25° C.” value was “Solid”.

Turning to `NCC(=O)O.O=C1O[C@H]([C@H](O)CO)C(O)=C1O` [Formulation 146], the “state at 25° C.” value was “Solid”.

With `C[C@H](N)C(=O)O.O=CO` [Formulation 147], the “state at 25° C.” value was “Solid”.

For the compound `CC(=O)O.C[C@H](N)C(=O)O` [Formulation 148], the “state at 25° C.” value was “Solid”.

As for `CCC(=O)O.C[C@H](N)C(=O)O` [Formulation 149], the “state at 25° C.” value is “Solid”.

As to `CCCCCC(=O)O.C[C@H](N)C(=O)O` [Formulation 150], the “state at 25° C.” value is “Solid”.

For `CCCC(=O)O.C[C@H](N)C(=O)O` [Formulation 151], the “state at 25° C.” value is recorded as “Solid”.

With `CCCCCCCC/C=C\CCCCCCCC(=O)O.C[C@H](N)C(=O)O` [Formulation 153], the “state at 25° C.” value is listed as “Solid”.

For the compound `CCCCC/C=C\C/C=C\CCCCCCCC(=O)O.C[C@H](N)C(=O)O` [Formulation 154], the “state at 25° C.” value is recorded as “Solid”.

With `C[C@H](N)C(=O)O.O=C(O)C(O)C(O)C(O)C(O)CO` (stereo not drawn) [Formulation 155], the “state at 25° C.” value is “Solid”.

Take `CC(O)C(=O)O.C[C@H](N)C(=O)O` (stereo not drawn) [Formulation 156]: the “state at 25° C.” value was “Solid”.

Turning to `C[C@H](N)C(=O)O.O=C(O)CCCCC(=O)O` [Formulation 157], the “state at 25° C.” value is on record as “Solid”.

`C[C@H](N)C(=O)O.O=C(O)CCC(=O)O` [Formulation 158]: the “state at 25° C.” value was “Solid”.

As for `C[C@H](N)C(=O)O.N[C@@H](CCC(=O)O)C(=O)O` [Formulation 159], the “state at 25° C.” value was “Solid”.

As to `C[C@H](N)C(=O)O.O=C(O)/C=C/C(=O)O` [Formulation 160], the “state at 25° C.” value is recorded as “Solid”.

`C[C@H](N)C(=O)O.O=C(O)C[C@H](O)C(=O)O` [Formulation 161]: the “state at 25° C.” value is reported as “Solid”.

For the compound `C[C@H](N)C(=O)O.O=C(O)CC(O)(CC(=O)O)C(=O)O` [Formulation 162], the “state at 25° C.” value was “Solid”.

Take `C[C@H](N)C(=O)O.O=C(O)C(O)C(O)C(=O)O` (stereo not drawn) [Formulation 163]: the “state at 25° C.” value is given as “Solid”.

Turning to `C[C@H](N)C(=O)O.O=C(O)c1ccccc1` [Formulation 164], the “state at 25° C.” value was “Solid”.

As for `C[C@H](N)C(=O)O.O=C1O[C@H]([C@@H](O)CO)C(O)=C1O` [Formulation 165], the “state at 25° C.” value is given as “Solid”.

For the compound `C[C@H](N)C(=O)O.O=C1O[C@H]([C@H](O)CO)C(O)=C1O` [Formulation 166], the “state at 25° C.” value is reported as “Solid”.

Regarding `NCCCC(=O)O.O=CO` [Formulation 167], the “state at 25° C.” value is given as “Solid”.

In the case of `CC(=O)O.NCCCC(=O)O` [Formulation 168], the “state at 25° C.” value is “Solid”.

Take `CCC(=O)O.NCCCC(=O)O` [Formulation 169]: the “state at 25° C.” value is “Solid”.

For the compound `CCCCCC(=O)O.NCCCC(=O)O` [Formulation 170], the “state at 25° C.” value is listed as “Solid”.

For the compound `CCCC(=O)O.NCCCC(=O)O` [Formulation 171], the “state at 25° C.” value is “Solid”.

As to `CCCCC/C=C\C/C=C\CCCCCCCC(=O)O.NCCCC(=O)O` [Formulation 174], the “state at 25° C.” value is reported as “Solid”.

Turning to `NCCCC(=O)O.O=C(O)CCCCC(=O)O` [Formulation 177], the “state at 25° C.” value was “Solid”.

In the case of `NCCCC(=O)O.O=C(O)CCC(=O)O` [Formulation 178], the “state at 25° C.” value is “Solid”.

For `NCCCC(=O)O.N[C@@H](CCC(=O)O)C(=O)O` [Formulation 179], the “state at 25° C.” value is “Solid”.

As to `NCCCC(=O)O.O=C(O)/C=C/C(=O)O` [Formulation 180], the “state at 25° C.” value is “Solid”.

With `NCCCC(=O)O.O=C(O)C[C@H](O)C(=O)O` [Formulation 181], the “state at 25° C.” value is reported as “Solid”.

As for `NCCCC(=O)O.O=C(O)C(O)C(O)C(=O)O` (stereo not drawn) [Formulation 183], the “state at 25° C.” value is “Solid”.

`NCCCC(=O)O.O=C(O)c1ccccc1` [Formulation 184]: the “state at 25° C.” value is “Solid”.

Consider `NCCCC(=O)O.O=C1O[C@H]([C@@H](O)CO)C(O)=C1O` [Formulation 185], for which the “state at 25° C.” value is recorded as “Solid”.

For the compound `NCCCC(=O)O.O=C1O[C@H]([C@H](O)CO)C(O)=C1O` [Formulation 186], the “state at 25° C.” value is given as “Solid”.

On to `CC(C)[C@H](N)C(=O)O.O=CO` [Formulation 187], for which the “state at 25° C.” value is “Solid”.

For `CC(=O)O.CC(C)[C@H](N)C(=O)O` [Formulation 188], the “state at 25° C.” value is “Solid”.

As for `CC(C)[C@H](N)C(=O)O.CCC(=O)O` [Formulation 189], the “state at 25° C.” value is given as “Solid”.

Regarding `CC(C)[C@H](N)C(=O)O.CCCCCC(=O)O` [Formulation 190], the “state at 25° C.” value is listed as “Solid”.

In the case of `CC(C)[C@H](N)C(=O)O.CCCC(=O)O` [Formulation 191], the “state at 25° C.” value is “Solid”.

In the case of `CC(C)[C@H](N)C(=O)O.O=C(O)[C@H](O)[C@@H](O)[C@H](O)[C@H](O)CO` [Formulation 192], the “state at 25° C.” value was “Solid”.

For the compound `CC(C)[C@H](N)C(=O)O.CC(O)C(=O)O` [Formulation 193], the “state at 25° C.” value was “Solid”.

With `CC(C)[C@H](N)C(=O)O.O=C(O)CCCCC(=O)O` [Formulation 194], the “state at 25° C.” value is reported as “Solid”.

With `CC(C)[C@H](N)C(=O)O.O=C(O)CCC(=O)O` [Formulation 195], the “state at 25° C.” value is given as “Solid”.

Regarding `CC(C)[C@H](N)C(=O)O.N[C@@H](CCC(=O)O)C(=O)O` [Formulation 196], the “state at 25° C.” value is given as “Solid”.

For the compound `CC(C)[C@H](N)C(=O)O.O=C(O)/C=C/C(=O)O` [Formulation 197], the “state at 25° C.” value is “Solid”.

As for `CC(C)[C@H](N)C(=O)O.O=C(O)C[C@H](O)C(=O)O` [Formulation 198], the “state at 25° C.” value is given as “Solid”.

Consider `CC(C)[C@H](N)C(=O)O.O=C(O)CC(O)(CC(=O)O)C(=O)O` [Formulation 199], for which the “state at 25° C.” value was “Solid”.

For the compound `CC(C)[C@H](N)C(=O)O.O=C(O)C(O)C(O)C(=O)O` (stereo not drawn) [Formulation 200], the “state at 25° C.” value is on record as “Solid”.

Source of the values: US20250186321A1, “FORMULATION USING AMINO ACID AND CARBOXYLIC ACID, ORGANIC SALT, AND COMPOSITION COMPRISING SAME AND USE THEREOF” (MIYOSHI OIL & FAT CO., LTD., priority 2021, published 2025).
